T1: WT E. coli PNP (Escherichia coli, UniProt P0ABP8)
T1 construct: made in house
T1 sequence (P0ABP8 2-239 limits assumed): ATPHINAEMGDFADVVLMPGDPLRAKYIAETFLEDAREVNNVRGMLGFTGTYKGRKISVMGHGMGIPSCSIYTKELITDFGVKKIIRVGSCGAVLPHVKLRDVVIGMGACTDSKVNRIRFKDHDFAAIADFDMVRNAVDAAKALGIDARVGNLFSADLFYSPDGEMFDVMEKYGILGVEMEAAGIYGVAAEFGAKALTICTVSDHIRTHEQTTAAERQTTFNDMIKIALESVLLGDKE


Legend:
WT E. coli PNP [1] = biological target: T1, WT E. coli PNP; test: Enzymatic specific activity, spectrophotometric assay; format: biochemical; conditions: WT PNP (reference = 100); pH 7.0, 50 mM Hepes, 25 °C, 50 mM phosphate
Method: (§1) All activity measurements and kinetic studies were done in 50 mM Hepes/HCl buffer pH 7.0 at 25 °C as previously described for the WT E. coli PNP and its active-site mutants, using direct spectrophotometric assay for adenosine, guanosine and 7-methylguanosine as substrates, and a coupled assay with xanthine oxidase in the case of inosine[13],[28],[29]. Activity measurements were performed for each protein sample, before and after each experiment as a control of the state of the protein.

WT E. coli PNP [2] = biological target: T1, WT E. coli PNP; set-up: method as in PMID 21672603; conditions: pH 7.0, 50 mM Hepes, 25 °C, 50 mM phosphate; cited from earlier work
Y160W PNP mutant [3] = biological target: T2, Y160W PNP mutant (Escherichia coli, UniProt P0ABP8, Y161W); test: Enzymatic specific activity, spectrophotometric assay; format: biochemical, E. coli; set-up: made in house; host or cells: E. coli DH5α-T1; conditions: pH 7.0, 50 mM Hepes, 25 °C, 50 mM phosphate; for Enzymatic specific activity relative to WT: Y160W vs WT; for Enzymatic specific activity: Y160W
T2 sequence (P0ABP8 2-239 Y161W): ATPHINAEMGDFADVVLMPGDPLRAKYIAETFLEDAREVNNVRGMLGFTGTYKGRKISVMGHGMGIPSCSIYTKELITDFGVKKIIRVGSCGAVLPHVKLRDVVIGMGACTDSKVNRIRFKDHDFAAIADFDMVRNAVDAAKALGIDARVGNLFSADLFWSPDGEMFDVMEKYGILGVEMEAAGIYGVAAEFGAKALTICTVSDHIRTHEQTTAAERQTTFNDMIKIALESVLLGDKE
Method: as §1

WT E. coli PNP [4] = biological target: T1, WT E. coli PNP; test: Kinetic studies with variable substrate; format: biochemical; conditions: nucleoside as variable substrate, 50 mM phosphate, Michaelis–Menten, pH 7.0, 25 °C
Method: as §1
(§2) The classical Michaelis–Menten equation was fitted to the kinetic curves (i.e. initial rate of the reaction, v0, vs. initial substrate concentration, c0):1 v0c0=Vmax1c0/c0+KM1
(§3) Coefficients a and b express the degree of cooperation between the subunits in a dimer, while constants KM1 and Vmax1 characterize the active sites of the enzyme when the neighbouring site is free.
(§4) A more complex model was used if there was a statistically significant decrease in the residual sum of squares as judged by the F test at 95% confidence level.

Y160W PNP mutant [5] = biological target: T2, Y160W PNP mutant; conditions: nucleoside as variable substrate, 50 mM phosphate, Michaelis–Menten, pH 7.0, 25 °C
Method: Activity measurements were performed for each protein sample, before and after each experiment as a control of the state of the protein.
as §2, §3, §4

WT E. coli PNP [6] = biological target: T1, WT E. coli PNP; set-up: method as in PMID 30337572; conditions: m^7Guo as variable substrate, 50 mM phosphate, Michaelis–Menten; cited from earlier work
[7] = test system: Nc1nc2c(ncn2[C@@H]2O[C@H](CO)[C@@H](O)[C@H]2O)c(=O)[nH]1; test: purified protein, by the assay type; conditions: other: Y160W, nucleoside as variable substrate, 50 mM phosphate, Michaelis–Menten, pH 7.0, 25 °C
[8] = substrate: Nc1nc2c(ncn2[C@@H]2O[C@H](CO)[C@@H](O)[C@H]2O)c(=O)[nH]1; test: Kinetic studies with variable substrate; format: biochemical, E. coli; conditions: other: WT, nucleoside as variable substrate, 50 mM phosphate, Michaelis–Menten, pH 7.0, 25 °C
Method: as §1, §2, §3, §4

Molecule	Enzymatic specific activity relative to WT (WT E. coli PNP [1]) [%]	Enzymatic specific activity (WT E. coli PNP [2]) [U/mg]	Enzymatic specific activity relative to WT (Y160W PNP mutant [3]) [%]	Enzymatic specific activity (Y160W PNP mutant [3]) [U/mg]	other results
Nc1ncnc2c1ncn2[C@@H]1O[C@H](CO)[C@@H](O)[C@H]1O [Ado, Adenosine]	100	58.5 ± 5.9	112	65.6 ± 14.2	–
Nc1nc2c(ncn2[C@@H]2O[C@H](CO)[C@@H](O)[C@H]2O)c(=O)[nH]1 [Guo, Guanosine]	100	60.4 ± 6.7	60	36.2 ± 2.0	–
O=c1[nH]cnc2c1ncn2[C@@H]1O[C@H](CO)[C@@H](O)[C@H]1O [Ino, Inosine]	100	103.2 ± 4.0	88	91.1 ± 8.9	–
C[n+]1cn([C@@H]2O[C@H](CO)[C@@H](O)[C@H]2O)c2nc(N)[nH]c(=O)c21 [m^7Guo, 7-Methylguanosine]	100	21.4 ± 1.6	108	23.2 ± 1.2	Vmax (WT E. coli PNP [4]): 22.7 ± 0.3 U/mg; Km (Y160W PNP mutant [5]): 71.3 ± 3 µM; Vmax (Y160W PNP mutant [5]): 21 ± 1 U/mg; Km (WT E. coli PNP [6]): 27.2 µM
Y160W PNP mutant (Escherichia coli K-12; Y161W)	–	–	–	–	Km [7]: 128 ± 2 µM; Vmax [7]: 42.8 ± 0.3 U/mg
WT E. coli PNP (Escherichia coli K-12) (protein, made in house) ATPHINAEMGDFADVVLMPGDPLRAKYIAETFLEDAREVNNVRGMLGFTGTYKGRKISVMGHGMGIPSCSIYTKELITDFGVKKIIRVGSCGAVLPHVKLRDVVIGMGACTDSKVNRIRFKDHDFAAIADFDMVRNAVDAAKALGIDARVGNLFSADLFYSPDGEMFDVMEKYGILGVEMEAAGIYGVAAEFGAKALTICTVSDHIRTHEQTTAAERQTTFNDMIKIALESVLLGDKE	–	–	–	–	Km [8]: 28 ± 4 µM; Vmax [8]: 51.1 ± 2.3 U/mg

— paper PMC8160210, “Single tryptophan Y160W mutant of homooligomeric E. coli purine nucleoside phosphorylase implies that dimers forming the hexamer are functionally not equivalent” (Scientific Reports, 2021)
